Results on 26 compounds are retold here after article PMC6301270 (MedChemComm, 2018).

One series relates to HeLa cells. Put plainly: HeLa cell assay (cytotoxicity). The settings on record: Homo sapiens, HeLa cells, 48 hours, resazurin, read-out: HeLa IC50. In kind it is cell-based. Here is the method: HeLa cells were cultured in DMEM medium supplemented with 10% fetal bovine serum and antibiotics (penicillin/streptomycin/amphotericin B) at 37 °C in a 5% CO2 incubator. On the day prior to compound addition, cells were plated in 96-well plates at 2 × 10^4 cells per well. Compounds were added to the cells in 3-fold serial dilutions and incubation at 37 °C in a 5% CO2 incubator continued for 48 hours. Twenty μl resazurin reagent (0.5 mM resazurin in phosphate-buffered saline) was added to each well and, after a 2-hour incubation, fluorescence (Exc560/Em590) was measured in a plate reader. Percentage cell viability in drug-treated wells was calculated from the fluorescent readings obtained relative to those in wells containing control, untreated cells. Plots of % cell viability vs. log[compound] were used to determine IC50 values by non-linear regression analysis using GraphPad Prism.
(In general: Resazurin is reduced to fluorescent resorufin, in cell work by metabolically active cells.)

In series [1] the test system is T.b. brucei (strain 427) bloodstream form parasites. Put plainly: T.b. brucei single concentration screen (10 μM). The settings on record: for viability at 10 µM: Trypanosoma brucei, read-out: T.b.brucei % viability (10 µM); for T.b.brucei % viability (10 µM): single concentration 10 µM, % parasite viability relative to non-treated parasites.
The test system of the next series is T.b. brucei. More on the design: method as in https://www.pathogenbox.org/. The settings on record: Table 1, kinetoplastid category; ref https://www.pathogenbox.org/; read-out: T. brucei brucei IC50 (μM) Pathogen Box; cited from earlier work.
Series [2] concerns T.b. brucei (strain 427) bloodstream form parasites. The experiment in a line: Trypanosoma brucei assay, dose–response (this study). In kind it is cell-based. The settings on record: for IC50: Trypanosoma brucei; for Selectivity index: calculated as IC50(HeLa)/IC50(T.bb).
Where [3] appears, read: Table 1, kinetoplastid category, 48 hours at 37 °C, resazurin, read-out: T. brucei brucei IC50 (μM) This study.
The mark [4] stands for this setting: Table 2, remaining Pathogen Box, 48 hours at 37 °C, resazurin, read-out: T. brucei brucei IC50 (μM) This study.
Setting [5] is: pIC50 values (M), read-out: pIC50 (T.b. brucei), this study (converted).

“Also recorded” adds a separate entry of the source. Read-outs that look alike come from different tables or passages of the source. Where only a bound is given, the exact number is not on record here.

For the compound `O=C(Nc1ccc(F)c(-c2nc3cc(-c4ccccc4)cnc3[nH]2)c1)N1CCCC1` [Compound 2, FC1=C(C=C(NC(=O)N2CCCC2)C=C1)C1=NC2=CC(=CN=C2N1)C1=CC=CC=C1], the IC50 in the series with HeLa cells (Table 1) was 0.8 µM; with T.b. brucei, below 0.13 µM; in series [2] (setting [3]) it was 0.049 µM. Moreover, the viability (in general, the share of living cells, or the viability signal relative to a control) at 10 µM in series [1] came out at 2%.
As to `O=C(Nc1ccc2c(c1)B(O)OC2)c1ccccc1C(F)(F)F` [Compound 3, OB1OCc2ccc(NC(=O)c3ccccc3C(F)(F)F)cc12], the results for the IC50 (in the series with HeLa cells (Table 1); with T.b. brucei; in series [2] (setting [3])) were above 25 µM, 0.15 µM and 0.14 µM, respectively. Further, in series [1], the viability at 10 µM turned out to be 0%.
For the compound `CCc1ccccc1-n1c(C)cn2c3c(=O)n(C(C(=O)OC)C(C)C)c(=O)n(C)c3nc12` (stereo not shown) [Compound 4, CCc1ccccc1n2c(C)cn3c4C(=O)N(C(C(C)C)C(=O)OC)C(=O)N(C)c4nc23], the IC50 is above 25 µM in the series with HeLa cells (Table 1), below 0.13 µM in the series with T.b. brucei and 0.03 µM in series [2] (setting [3]). The viability at 10 µM in series [1] stood at 0%.
Consider `Cc1ncc(-c2ccnc(Nc3ccc(S(C)(=O)=O)cc3)n2)n1C(C)C` [Compound 6, CC(C)n1c(C)ncc1c2ccnc(Nc3ccc(cc3)S(=O)(=O)C)n2], for which the IC50 in the series on HeLa cells (Table 1) was 1.2 µM; in the series with T.b. brucei, 0.26 µM; in series [2] (setting [3]), 0.084 µM. The viability at 10 µM in series [1] turned out to be 2.2%.
In the case of `CNC(=O)c1nn(C)c2c1C(C)(C)Cc1cnc(Nc3ccc(N4CCN(C)CC4)cc3)nc1-2` [Compound 7, CNC(=O)c1nn(C)c2c3nc(Nc4ccc(cc4)N5CCN(C)CC5)ncc3CC(C)(C)c12], the results for the IC50 (in the series with HeLa cells (Table 1); in the series on T.b. brucei; in series [2] (setting [3])) were 4 µM, below 0.13 µM and 0.048 µM, respectively. For the same compound, the viability at 10 µM in series [1] worked out at 0.62%.
As for `O=C(NCc1nnc2n1CCCCC2)c1ccc(-c2ccc(F)cc2)o1` [Compound 8, Fc1ccc(cc1)c2oc(cc2)C(=O)NCc3nnc4CCCCCn34], the IC50 with HeLa cells (Table 1) was above 25 µM; with T.b. brucei it was 0.1 µM; in series [2] (setting [3]), 0.11 µM. For the same compound, the viability at 10 µM in series [1] was found to be 1.3%.
Take `N=C(N)c1ccc(-c2cc(-c3ccccc3)on2)cc1` [Compound 26, NC(=N)c1ccc(cc1)c2cc(on2)c3ccccc3]: in series [1], the viability at 10 µM turned out to be 14% and the “T.b.brucei % viability (10 µM)” value was “did not sufficiently reduce cell viability”. Also, the IC50 in the series with T.b. brucei is 4.06 µM.
With `CCN(CC)S(=O)(=O)c1ccc(C(=O)Nc2cc(C)nn2-c2nc(C)c(C)c(=O)[nH]2)cc1` [Compound 27, CC1=C(C)C(NC(N2N=C(C)C=C2NC(C3=CC=C(S(=O)(N(CC)CC)=O)C=C3)=O)=N1)=O], in series [1], the viability at 10 µM stood at 58% and the “T.b.brucei % viability (10 µM)” value was “did not sufficiently reduce cell viability”. In the series on T.b. brucei, the IC50 was 5.3 µM.
On to `N=C(N)Nc1ccc(-c2ccc(-c3ccc(NC(=N)N)cc3Cl)o2)c(Cl)c1` [Compound 32, NC(=N)Nc1ccc(c(Cl)c1)c2oc(cc2)c3ccc(NC(=N)N)cc3Cl], for which, in series [1], the viability at 10 µM was found to be 17% and the “T.b.brucei % viability (10 µM)” value is “did not sufficiently reduce cell viability”. For the same compound, in the series on T.b. brucei, the IC50 was 1.03 µM.
On to `O=C(Nc1nc(-c2ccccn2)cs1)c1cncn1-c1ccccc1` [Compound 41, O=C(Nc1nc(cs1)c2ccccn2)c3cncn3c4ccccc4], for which the IC50 came to 5.1 µM in the series on HeLa cells (Table 2) and 1.1 µM in series [2] (setting [4]). The viability at 10 µM in series [1] was 1%. Further, the Selectivity index in series [2] was 4.6.
As to `CC(C)=CCC/C(C)=C\CNCCNC1C2CC3CC(C2)CC1C3` (stereo not shown) [Compound 42, CC(=CCC\C(=C/CNCCNC1C2CC3CC(CC1C3)C2)\C)C], the results for the IC50 (in the series with HeLa cells (Table 2); in series [2] (setting [4])) were 15 µM and 2.3 µM, respectively. In addition, the viability at 10 µM in series [1] was determined as 2%. The Selectivity index in series [2] was 6.5.
For `COc1cccc(-c2nc3c(N4CCCC4)cccc3n2CC2CCCN2)n1` (stereo not shown) [Compound 44, COc1cccc(n1)c2nc3c(cccc3n2CC4CCCN4)N5CCCC5] the same measures were 22 µM, 4.2 µM, 4% and 5.2.
For `Cc1cnc(N2CCN[C@@H](Cc3ccccc3)C2)nc1Oc1ccc(-n2ccnc2)cc1` [Compound 45, Cc1cnc(nc1Oc2ccc(cc2)n3ccnc3)N4CCN[C@@H](Cc5ccccc5)C4] the same measures were above 25 µM, 5.1 µM, 10% and above 4.9.
Consider `COc1ccc2nccc(NC(=O)C3CCN(CCc4ccc(Cl)cc4)CC3)c2n1` [Compound 47, COc1ccc2nccc(NC(=O)C3CCN(CCc4ccc(Cl)cc4)CC3)c2n1], for which the IC50 was above 25 µM in the series on HeLa cells (Table 2) and 29 µM in series [2] (setting [4]). Moreover, the viability at 10 µM in series [1] amounted to 7%.
As for `COc1ccc(OC)c(NCc2ccc3nc(N)nc(N)c3c2Cl)c1` [Compound 48, COc1ccc(OC)c(NCc2ccc3nc(N)nc(N)c3c2Cl)c1], the IC50 in the series with HeLa cells (Table 2) is above 25 µM; in series [2] (setting [4]), 1.2 µM. Also, the viability at 10 µM in series [1] came out at 12%. Also, the Selectivity index in series [2] is on record as above 21.
For `Cc1cc(C2=NOC(c3cc(Cl)c(F)c(Cl)c3)(C(F)(F)F)C2)ccc1C(=O)NCc1ccc2c(c1)C(C)(C)OB2O` (stereo not shown) [Compound 49, Cc1cc(ccc1C(=O)NCc2ccc3B(O)OC(C)(C)c3c2)C4=NOC(C4)(c5cc(Cl)c(F)c(Cl)c5)C(F)(F)F] the same measures were 10 µM, 1.2 µM, 1% and 8.3.
For `CC(C)n1nc(-c2cc3c(Cl)cccc3[nH]2)c2c(N)ncnc21` [Compound 50, CC(C)n1nc(-c2cc3c(Cl)cccc3[nH]2)c2c(N)ncnc12] the same measures were above 25 µM, 4.3 µM, 4% and above 5.8.
In the same order, the values of `CN(C)c1cc(NC(=O)Nc2ccccc2)c2ccccc2n1` [Compound 52, CN(C)c1cc(NC(=O)Nc2ccccc2)c3ccccc3n1] are above 25 µM, 4.7 µM, 1% and above 5.3.
In the case of `Cc1ccc2c(c1C)NC(=O)C21NN=C(c2ccccc2)S1` (stereo not shown) [Compound 54, Cc1ccc2c(NC(=O)C23NN=C(S3)c4ccccc4)c1C], the values for the IC50 (in the series with HeLa cells (Table 2); in series [2] (setting [4]); in series [2] (setting [5])) were 6.6 µM, 1 µM and below 1 µM, respectively. Moreover, the viability at 10 µM in series [1] was 3%. Moreover, in series [2], the “T.b. brucei inhibition in words, this study” value is “sub-micromolar range”. Besides, in series [2], the Selectivity index is recorded as 6.6.
Regarding `CC(C)C(C(=O)Nc1ccc(S(=O)(=O)N(C)C)cc1)c1ccc(Cl)cc1` (stereo not shown) [Compound 55, CC(C)C(C(=O)Nc1ccc(cc1)S(=O)(=O)N(C)C)c2ccc(Cl)cc2], the IC50 is 12 µM in the series on HeLa cells (Table 2) and 6.5 µM in series [2] (setting [4]). In addition, the viability at 10 µM in series [1] came out at 8%. Besides, the Selectivity index in series [2] is on record as 1.8.
As for `CN1CCC(NCc2cccc(-c3ccc(S(=O)(=O)NCc4ccccc4)cc3)c2)CC1` [Compound 56, CN1CCC(CC1)NCc2cccc(c2)c3ccc(cc3)S(=O)(=O)NCc4ccccc4], the IC50 was 13 µM in the series on HeLa cells (Table 2), 0.22 µM in series [2] (setting [4]) and below 1 µM in series [2] (setting [5]). In addition, the viability at 10 µM in series [1] worked out at 2%. Further, in series [2], the “T.b. brucei inhibition in words, this study” value is “sub-micromolar range; also recorded: activity in the nanomolar range”.
As to `Nc1nccc2ccc(-c3ccc4nccn4c3)cc12` [Compound 57, Nc1nccc2ccc(cc12)c3ccc4nccn4c3], the IC50 is 5.4 µM in the series with HeLa cells (Table 2) and 1.2 µM in series [2] (setting [4]). Further, in series [1], the viability at 10 µM came to 3%. Further, the Selectivity index in series [2] is on record as 4.5.
For the compound `OCCc1ccc(Nc2nccc(-c3nnc4ccccn34)n2)cc1` [Compound 58, OCCc1ccc(Nc2nccc(n2)c3nnc4ccccn34)cc1], the IC50 in the series with HeLa cells (Table 2) is above 25 µM; in series [2] (setting [4]), 1.5 µM. Besides, the viability at 10 µM in series [1] was 11%. Moreover, in series [2], the Selectivity index is given as above 17.
For the compound `CCCn1c(NC(=O)c2ccc3ccccc3n2)nc2ccccc21` [Compound 59, CCCn1c(NC(=O)c2ccc3ccccc3n2)nc4ccccc14], the figures for the IC50 (in the series with HeLa cells (Table 2); in series [2] (setting [4])) were above 25 µM and 7.1 µM, respectively. In series [1], the viability at 10 µM is 2%. Further, the Selectivity index in series [2] is on record as above 3.5.
For `Oc1c(I)cc(I)c2cccnc12` [Compound 60, Oc1c(I)cc(I)c2cccnc12] the same measures were above 25 µM, 2 µM, 1% and above 13.
Turning to `CS(=O)(=O)c1ccc(C(=O)N(CC2CCCO2)c2nc3ccccc3s2)cc1[N+](=O)[O-]` (stereo not shown) [Compound 61, CS(=O)(=O)c1ccc(cc1[N+](=O)[O-])C(=O)N(CC2CCCO2)c3nc4ccccc4s3], the results for the IC50 (with HeLa cells (Table 2); in series [2] (setting [4])) were above 25 µM and 11 µM, respectively. In addition, the viability at 10 µM in series [1] is 0%. Moreover, the Selectivity index in series [2] is above 2.3.
